Entries after “also recorded” stand apart in the source; their conditions may differ. Where two headings read alike, the source gives them in different places.
Key:
[1] = system: AMPK; assay: AMPK phosphorylation Western blot in MCF7; format: cell-based; settings: for AMPK phosphorylation relative to control: MCF7, 6 hours, metformin, buformin, phenformin 1 mM, HBB 20 uM
Procedure: Western blotting analysis was performed in triplicate.
Cells were plated in complete media in the presence of serum (10% FBS) and cultured at 37° C. with 5% CO2 and treated with biguanides for 6 hours before harvesting. Total protein was extracted and analyzed by Western-blotting with GAPDH as an internal control.
(§1) Cells were plated in complete media in the presence of serum (10% FBS) and cultured at 37° C. with 5% CO2 and treated with 14,15-EET or EtOH control for 24 hours before harvesting. Total protein was extracted and analyzed by Western-blotting with GAPDH as an internal control.

[2] = system: AMPK; assay: AMPK phosphorylation Western blot in MDA-MB-231; format: cell-based; settings: MDA-MB-231, 1 uM 14,15-EET, 24 hours
Procedure: as §1, with “FIG. 38 illustrates that 14,15-EET inactivates AMPK in MCF7 line but not in MDA-MB-231 line. Cells” for “Cells”

[3] = molecular target: CYP3A4 epoxygenase (Homo sapiens, UniProt P08684); assay: CYP3A4 Supersome epoxygenase assay: EET synthesis from arachidonic acid, LC-ESI-MS/MS; settings: for inhibition of CYP3A4-mediated EETs synthesis: CYP3A4 Supersome, arachidonic acid 60 uM, 30 minutes, 37 C
Sequence of CYP3A4 epoxygenase (P08684 whole entry): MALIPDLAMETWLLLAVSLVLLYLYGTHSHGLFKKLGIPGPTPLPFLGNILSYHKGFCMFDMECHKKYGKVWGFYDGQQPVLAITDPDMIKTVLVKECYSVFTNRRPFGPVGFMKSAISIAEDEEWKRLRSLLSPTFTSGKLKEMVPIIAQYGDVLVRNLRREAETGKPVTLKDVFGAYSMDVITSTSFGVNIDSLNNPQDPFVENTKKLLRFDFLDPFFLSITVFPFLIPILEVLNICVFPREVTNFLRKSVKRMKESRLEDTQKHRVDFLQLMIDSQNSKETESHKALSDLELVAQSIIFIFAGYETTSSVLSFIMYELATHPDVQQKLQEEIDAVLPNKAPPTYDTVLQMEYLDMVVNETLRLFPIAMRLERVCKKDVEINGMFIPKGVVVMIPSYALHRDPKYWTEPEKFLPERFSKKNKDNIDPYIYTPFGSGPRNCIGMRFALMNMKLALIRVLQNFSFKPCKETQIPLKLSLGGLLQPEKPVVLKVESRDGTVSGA
Procedure: Measurements are reported as percentage of control reactions performed with vehicle but no compound. A ^13C-EET recovery standard was used to control for recovery of EETs from extractions. […] EET measurements in these Supersome experiments are expressed as percentage of control reactions. Absolute EET measurements are determined by subtraction of regioisomer values in a baseline reaction lacking NADPH. Measurements were performed in triplicate and values are expressed as the mean±SD.
After the reaction, EETs were then extracted with 1 mL dichloromethane and reconstituted in methanol and analyzed by LC-ESI-MS/MS.

[4] = system: MCF-7 cell line; assay: MTT growth assay, MCF-7 line; format: cell-based; settings: Homo sapiens, MCF7, 24 h, read-out: IC50, MCF-7 growth
Procedure: The growth of the MCF-7 line was measured by MTT assay at 24 hours. Cells were plated in complete media in the presence of serum (10% FBS) and cultured at 37° C. with 5% CO2 and treated with the biguanide or DMSO vehicle. Growth was measured at 24 hours by MTT assay.
Cells were plated in complete media in the presence of serum (10% FBS) and cultured at 37° C. with 5% CO2 and treated with HBB or DMSO vehicle. Growth was measured at 24 hours by MTT assay.

[5] = system: MDA-MB-231; assay: MTT growth assay, MDA-MB-231 line; format: cell-based; settings: Homo sapiens, MDA-MB-231, 24 h, MTT assay at 24 hours, 10% FBS
Procedure: FIG. 30 illustrates HBB inhibits proliferation of MCF7 and MDA-MB-231 lines. Cells were plated in complete media in the presence of serum (10% FBS) and cultured at 37° C. with 5% CO2 and treated with HBB or DMSO vehicle. Growth was measured at 24 hours by MTT assay. Results were converted to percent growth of control and represented as mean±S.E. (n=8).

[6] = system: STAT3; assay: STAT3 phosphorylation Western blot in MCF7; format: cell-based
Procedure: Western blotting analysis was performed (C=control, M=metform and H=HBB).
Total protein was extracted and analyzed by Western-blotting with GAPDH as an internal control.

[7] = system: MCF7 line; assay: 14,15-EET protection against biguanide growth inhibition, MTT, MCF7; format: cell-based; settings: MCF-7, exogenous (±)-14,15-EET (1 uM)
Procedure: Cells were plated in complete media in the presence of serum (10% FBS) and cultured at 37° C. with 5% CO2 and treated with biguanides for 24 hours in the presence or absence of 1 uM 14,15-EET. Growth was then measured at 24 hour by MTT assay.

[8] = system: MCF7; assay: NAC protection against HBB growth inhibition, MTT, MCF7; format: cell-based; settings: MCF7, 0.1 mM or 1 mM NAC, at IC50 of HBB
Procedure: FIG. 34 illustrates that N-acetylcysteine (NAC) protects MDA-MB-231 but not MCF7 against HBB-mediated growth inhibition. Cells were plated in complete media in the presence of serum (10% FBS) and cultured at 37° C. with 5% CO2 and treated with HBB in the presence of NAC or PBS control. Growth was then measured at 24 hours by MTT assay. Results were converted to percent growth of control and represented as mean±S.E. (n=8).

[9] = molecular target: CYP3A4 nanodiscs (Homo sapiens, UniProt P08684); assay: CYP3A4 nanodisc spin shift titration; format: binding; settings: no CPR; 156 uM and 1.1 mM metformin
Sequence of CYP3A4 nanodiscs (P08684 whole entry): as above

[10] = system: MCF-7 xenograft; assay: MCF-7 xenograft in nude mice; format: in vivo; settings: metformin 40 mg/kg/day in drinking water vs vehicle
Procedure: FIG. 3A. MCF-7 xenograft with 3×10^6 cells in the 2nd mammary fat pad on day 0. HBB (4 mg/kg ip daily) (ν) or PBS (ρ) treatment began on day 1. * indicates P<0.05. FIG. 3B. MDAMB-231 xenograft with 1×10^6 cells in the 2nd mammary fat pad on day 0. HBB (4 mg/kg ip daily) (ν) or PBS (ρ) treatment began on day 1. N=20 mice per arm for each study; error bars are SEM.
MCF-7 cells were implanted in the mammary fat pad of 4-5 week mice and treatment was initiated when tumor size was ≥15 mm^3 by 2 sequential measurements with randomized assignment to the treatment arms.
FIG. 44A. Nude mice were inoculated with 3×10^6 MCF-7 cells and treated with vehicle (Δ) HBB at the MTD (4 mg/kg/day ip) (▪). (* indicates P<0.05). Error bars are SEM. […] The dose limiting toxicity was weight loss. At the MTD there was a well-tolerated 4% reduction of weight at 42 days (P<0.0001; data not shown). FIG. 44B. Nude mice were inoculated with 1×10^6MDA-MB-231 cells and treated with HBB at the MTD (4 mg/kg/day ip).

[11] = system: AA metabolism to EET in MCF-7 cells; assay: EET regioisomer abundance in MCF-7 cells; format: cell-based; settings: 0.10 mM metformin, 6 h
[12] = system: CYP3A4; assay: CYP3A4 protein level in MCF7 cells; format: cell-based; settings: MCF7, metformin 1 mM, 48 hours

SMILES: CCCCCC1OC1CC=CCC=CCC=CCCCC(=O)O (racemic) [14,15-EET, (±)-14,15-epoxyeicosatrienoic acid, reference compound]
- AMPK phosphorylation relative to EtOH control ([1]; MCF7, 1 uM 14,15-EET, 24 hours): decreased phosphorylation of AMPK
- AMPK phosphorylation relative to control [2]: no statistical significant change of AMPK phosphorylation

SMILES: CCCCCCNC(=N)NC(=N)NCc1ccccc1.Cl [HBB-HCl, N1-hexyl-N5-benzyl biguanide hydrochloride]
- IC50 ([3]; IC50, inhibition of CYP3A4 epoxygenase): ~50 µM
- IC50 ([4]; MTT assay at 24 hours, 10% FBS): 20 µM
- IC50 [5]: 20 µM
- concentration that activates AMPK phosphorylation [1]: > 10 µM
- fold more potent than metformin, activation of AMPK phosphorylation ([1]; vs metformin): > 100 fold
- concentration that inhibits STAT3 phosphorylation [6]: > 10 µM
- fold more potent than metformin, inhibition of Stat3 phosphorylation ([6]; vs metformin): > 100 fold
- rescue of MCF-7 growth by 14,15-EET in the presence of the biguanide [7]: partially inhibited

SMILES: CCCCCCNC(=N)NC(=N)NCc1ncc[nH]1 [HIB 2-yl, N1-hexyl-N5-((1H-imidazol-2-yl)methyl)-biguanide]
- IC50 ([4]; MTT assay at 24 hours, 10% FBS): > 150 µM

SMILES: CCCCCCNC(=N)NC(=N)NCc1ccncc1 [HPB, N1-hexyl-N5-(pyridin-4-ylmethyl) biguanidine]
- IC50 ([4]; MTT assay at 24 hours, 10% FBS): 40 µM

SMILES: CC(=O)N[C@@H](CS)C(=O)O [NAC, N-acetylcysteine]
- protection by NAC against HBB-mediated growth inhibition [8]: failed to protect

SMILES: CCCCNC(=N)NC(=N)N [buformin]
- IC50 [4]: > 10000 µM
- AMPK phosphorylation relative to control [1]: increased phosphorylation of AMPK
- rescue of MCF-7 growth by 14,15-EET in the presence of the biguanide [7]: rescues the MCF-7 line; also recorded: partial rescue

SMILES: CN(C)C(=N)N=C(N)N [metformin, reference compound]
- inhibition of CYP3A4-mediated EETs synthesis [3]: inhibit CYP3A4 epoxygenase; also recorded: significantly reduced EETs production
- IC50 ([4]; MTT assay at 24 hours, 10% FBS): > 10000 µM
- binding to CYP3A4 nanodiscs [9]: binds to functional CYP3A4 epoxygenase nanodiscs
- tumor growth, MCF-7 xenograft [10]: inhibits the MCF-7 xenograft
- tumor growth, MCF-7 xenograft ([10]; listed as Metformin): suppressed tumor growth
- rescue of MCF-7 growth by 14,15-EET in the presence of the biguanide [7]: rescues the MCF-7 line; also recorded: partial rescue
- abundance of EET regioisomers [11]: reduced abundance
- CYP3A4 protein level [12]: does not change CYP3A4 protein level

SMILES: [H]/N=C(/N)N/C(=N/[H])NCCc1ccccc1 [phenformin, reference compound]
- inhibition of CYP3A4-mediated EETs synthesis [3]: inhibit CYP3A4 epoxygenase
- IC50 ([4]; MTT assay at 24 hours, 10% FBS): 8000 µM
- AMPK phosphorylation relative to control [1]: increased phosphorylation of AMPK
- rescue of MCF-7 growth by 14,15-EET in the presence of the biguanide [7]: rescues the MCF-7 line; also recorded: partial rescue
